Results as given in patent publication US20100266618A1, “COMPOSITIONS AND METHODS FOR AUGMENTING ACTIVITY OF ONCOLYTIC VIRUSES” (priority 2009, published 2010).
Where two headings read alike, the source gives them in different places.

Legend:
U373 cells = assay: In vitro cytotoxicity assays with small molecules followed by Maraba virus infection; details: for enhancement of viral oncolysis (cell viability): viability 48 h later
[1] = test system: OVCAR-8 (ovarian carcinoma) cells; assay type: cell-based, human
[2] = test system: U373 (glioblastoma) cells; assay type: cell-based, human
[3] = test system: NCI-H226 (non-small cell lung carcinoma) cells; assay: Genome-wide synthetic lethal RNAi screen with Maraba virus infection, resazurin cell viability; details: synthetic lethal hits, siRNA against the gene plus Maraba virus
[4] = synthetic lethal hits, siRNA against the gene plus Maraba virus
[5] = siRNA against the named gene plus Maraba virus, synthetic lethal hit list

Compound: COc1cc(-c2cccc(C(N)=O)c2)cc(C=O)c1O [Compound 2, 3′-formyl-4′-hydroxy-5′-methoxy-[1,1′-biphenyl]-3-carboxamide]
- lowest, maximally effective dose in cell culture experiments (U373 cells): 20 µM
- combination index (CI) with Maraba virus (U373 cells; U373, across a range of doses and MOIs): < 1.0
- enhancement of viral oncolysis (cell viability) (U373 cells; U373, drug 4 h prior to Maraba virus infection): but not 4 hours
- enhancement of viral oncolysis (cell viability) (U373 cells; U373, drug 48 h prior to Maraba virus infection): greatly enhanced viral oncolysis

Compound: BMP4
- COMPOSITE MAD SCORE OVCAR8 [1, 4]: −2.516
- COMPOSITE MAD SCORE U373 [2, 4]: −2.038
- COMPOSITE MAD SCORE NCIH226 [3]: −2.642

Compound: NODAL
- COMPOSITE MAD SCORE OVCAR8 [1, 5]: −4.721
- COMPOSITE MAD SCORE U373 [2, 5]: −2.315

Compound: tunicamycin [reference compound]
- virus-mediated killing after chemically induced ER preload (U373 cells; pulse 48 hours before virus infection (5 ug/mL 24 h, 24 h washout)): enhance virus-mediated killing
